# Target: HSD2 (Homo sapiens (Human), UniProt P80365)
# Experiment: HSD2 activity: cortisol conversion in human descending colon organoid monolayer cultures (Example 112)
# Details: not given
# Sequence of HSD2 (P80365 whole entry): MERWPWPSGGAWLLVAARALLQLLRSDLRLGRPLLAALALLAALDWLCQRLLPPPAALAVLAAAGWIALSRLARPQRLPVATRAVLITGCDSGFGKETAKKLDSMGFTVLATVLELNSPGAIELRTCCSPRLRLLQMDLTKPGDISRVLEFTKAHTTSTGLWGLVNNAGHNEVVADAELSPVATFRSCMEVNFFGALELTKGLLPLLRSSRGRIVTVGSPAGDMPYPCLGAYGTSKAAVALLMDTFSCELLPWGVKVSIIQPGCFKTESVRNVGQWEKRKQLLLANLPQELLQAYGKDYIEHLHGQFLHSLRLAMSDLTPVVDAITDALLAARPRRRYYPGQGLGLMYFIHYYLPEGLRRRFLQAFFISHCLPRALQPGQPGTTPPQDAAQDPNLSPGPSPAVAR
row,IC50 [µM],SMILES
1,> 10,"COCCOCCOCCOCCC(=O)O[C@H]1CC[C@@]2(C)[C@@H](CC[C@]3(C)[C@@H]2C(=O)C=C2[C@@H]4C[C@@](C)(C(=O)O)CC[C@]4(C)CC[C@]23C)[C@]1(C)C(=O)O [Compound 190-3, (2S,4aS,6aS,6bR,8aR,9S,10S,12aS,12bR,14bR)-10-((2,5,8,11-tetraoxatetradecan-14-oyl)oxy)-2,4a,6a,6b,9,12a-hexamethyl-13-oxo-1,2,3,4,4a,5,6,6a,6b,7,8,8a,9,10,11,12,12a,12b,13,14b-icosahydropicene-2,9-dicarboxylic acid]"

# Same assay, conditions: human descending colon epithelial cultures on transwells; 30 minute pre-incubation, then 40 nM cortisol for four hours; cortisol HTRF assay
row,SMILES,pIC50
1,"CC1(C)[C@@H](C(=O)O)CC[C@]2(C)[C@H]3C(=O)C=C4[C@@H]5C[C@@](C)(C(=O)O)CC[C@]5(C)CC[C@@]4(C)[C@]3(C)CC[C@@H]12 [(2S,4aS,6aS,6bR,8aS,10S,12aS,12bR,14bR)-2,4a,6a,6b,9,9,12a-heptamethyl-13-oxo-1,2,3,4,4a,5,6,6a,6b,7,8,8a,9,10,11,12,12a,12b,13,14b-icosahydropicene-2,10-dicarboxylic acid]",5.5
2,"CC1(C)[C@@H](OCC(=O)O)CC[C@]2(C)[C@H]3C(=O)C=C4[C@@H]5C[C@@](C)(C(=O)O)CC[C@]5(C)CC[C@@]4(C)[C@]3(C)CC[C@@H]12 [Compound 78-2, (2S,4aS,6aS,6bR,8aR,10S,12aS,12bR,14bR)-10-(Carboxymethoxy)-2,4a,6a,6b,9,9,12a-heptamethyl-13-oxo-1,2,3,4,4a,5,6,6a,6b,7,8,8a,9,10,11,12,12a,12b,13,14b-icosahydropicene-2-carboxylic acid]",5.4
3,"Cc1oc(=O)oc1COC(=O)[C@H]1CC[C@]2(C)[C@H]3C(=O)C=C4[C@@H]5C[C@@](C)(C(=O)O)CC[C@]5(C)CC[C@@]4(C)[C@]3(C)CC[C@H]2C1(C)C [Compound 176-2, (2S,4aS,6aS,6bR,8aS,10S,12aS,12bR,14bR)-2,4a,6a,6b,9,9,12a-Heptamethyl-10-(((5-methyl-2-oxo-1,3-dioxol-4-yl)methoxy)carbonyl)-13-oxo-1,2,3,4,4a,5,6,6a,6b,7,8,8a,9,10,11,12,12a,12b,13,14b-icosahydropicene-2-carboxylic acid]",6.3
4,"CC1OC(=O)OC1COC(=O)[C@H]1CC[C@]2(C)[C@H]3C(=O)C=C4[C@@H]5C[C@@](C)(C(=O)O)CC[C@]5(C)CC[C@@]4(C)[C@]3(C)CC[C@H]2C1(C)C (stereo partly drawn) [Compound 178-1, (2S,4aS,6aS,6bR,8aS,10S,12aS,12bR,14bR)-2,4a,6a,6b,9,9,12a-Heptamethyl-10-(((5-methyl-2-oxo-1,3-dioxolan-4-yl)methoxy)carbonyl)-13-oxo-1,2,3,4,4a,5,6,6a,6b,7,8,8a,9,10,11,12,12a,12b,13,14b-icosahydropicene-2-carboxylic acid]",6.3
5,"CSCC(=O)O[C@H]1CC[C@@]2(C)[C@@H](CC[C@]3(C)[C@@H]2C(=O)C=C2[C@@H]4C[C@@](C)(C(=O)O)CC[C@]4(C)CC[C@]23C)[C@]1(C)C(=O)OCc1oc(=O)oc1C [Compound 194-10, (2S,4aS,6aS,6bR,8aR,9S,10S,12aS,12bR,14bR)-2,4a,6a,6b,9,12a-Hexamethyl-9-(((5-methyl-2-oxo-1,3-dioxol-4-yl)methoxy)carbonyl)-10-(2-(methylthio)acetoxy)-13-oxo-1,2,3,4,4a,5,6,6a,6b,7,8,8a,9,10,11,12,12a,12b,13,14b-icosahydropicene-2-carboxylic acid]",8
6,"Cc1oc(=O)oc1COC(=O)[C@]1(C)[C@@H](OC(=O)CS(C)(=O)=O)CC[C@@]2(C)[C@H]1CC[C@]1(C)[C@@H]2C(=O)C=C2[C@@H]3C[C@@](C)(C(=O)O)CC[C@]3(C)CC[C@]21C [Compound 195-2, (2S,4aS,6aS,6bR,8aR,9S,10S,12aS,12bR,14bR)-2,4a,6a,6b,9,12a-Hexamethyl-9-(((5-methyl-2-oxo-1,3-dioxol-4-yl)methoxy)carbonyl)-10-(2-(methylsulfonyl)acetoxy)-13-oxo-1,2,3,4,4a,5,6,6a,6b,7,8,8a,9,10,11,12,12a,12b,13,14b-icosahydropicene-2-carboxylic acid]",6.3
7,"Cc1oc(=O)oc1COC(=O)[C@]1(C)[C@@H](OC(=O)c2ccccc2)CC[C@@]2(C)[C@H]1CC[C@]1(C)[C@@H]2C(=O)C=C2[C@@H]3C[C@@](C)(C(=O)O)CC[C@]3(C)CC[C@]21C [Compound 197-2, (2S,4aS,6aS,6bR,8aR,9S,10S,12aS,12bR,14bR)-10-(Benzoyloxy)-2,4a,6a,6b,9,12a-hexamethyl-9-(((5-methyl-2-oxo-1,3-dioxol-4-yl)methoxy)carbonyl)-13-oxo-1,2,3,4,4a,5,6,6a,6b,7,8,8a,9,10,11,12,12a,12b,13,14b-icosahydropicene-2-carboxylic acid]",7.9
8,"Cc1oc(=O)oc1COC(=O)[C@]1(C)[C@@H](OC(=O)C2CC2)CC[C@@]2(C)[C@H]1CC[C@]1(C)[C@@H]2C(=O)C=C2[C@@H]3C[C@@](C)(C(=O)O)CC[C@]3(C)CC[C@]21C [Compound 198-2, (2S,4aS,6aS,6bR,8aR,9S,10S,12aS,12bR,14bR)-10-((Cyclopropanecarbonyl)oxy)-2,4a,6a,6b,9,12a-hexamethyl-9-(((5-methyl-2-oxo-1,3-dioxol-4-yl)methoxy)carbonyl)-13-oxo-1,2,3,4,4a,5,6,6a,6b,7,8,8a,9,10,11,12,12a,12b,13,14b-icosahydropicene-2-carboxylic acid]",7.7
9,"COCO[C@H]1CC[C@@]2(C)[C@@H](CC[C@]3(C)[C@@H]2C(=O)C=C2[C@@H]4C[C@@](C)(C(=O)O)CC[C@]4(C)CC[C@]23C)[C@]1(C)C(=O)OCc1oc(=O)oc1C [Compound 205-2, (2S,4aS,6aS,6bR,8aR,9S,10S,12aS,12bR,14bR)-10-(Methoxymethoxy)-2,4a,6a,6b,9,12a-hexamethyl-9-(((5-methyl-2-oxo-1,3-dioxol-4-yl)methoxy)carbonyl)-13-oxo-1,2,3,4,4a,5,6,6a,6b,7,8,8a,9,10,11,12,12a,12b,13,14b-icosahydropicene-2-carboxylic acid]",6.4
10,"CC(=O)O[C@H]1CC[C@@]2(C)[C@@H](CC[C@]3(C)[C@@H]2C(=O)C=C2[C@@H]4C[C@@](C)(C(=O)O)CC[C@]4(C)CC[C@]23C)[C@]1(C)C(=O)OCc1oc(=O)oc1C(C)C [Compound 209-3, (2S,4aS,6aS,6bR,8aR,9S,10S,12aS,12bR,14bR)-10-acetoxy-9-(((5-isopropyl-2-oxo-1,3-dioxol-4-yl)methoxy)carbonyl)-2,4a,6a,6b,9,12a-hexamethyl-13-oxo-1,2,3,4,4a,5,6,6a,6b,7,8,8a,9,10,11,12,12a,12b,13,14b-icosahydropicene-2-carboxylic acid]",7.2
11,"Cc1oc(=O)oc1COC(=O)COC[C@@]1(C)[C@@H]2CC[C@]3(C)[C@H](C(=O)C=C4[C@@H]5C[C@@](C)(C(=O)O)CC[C@]5(C)CC[C@]43C)[C@@]2(C)CC[C@@H]1O [Compound 240-8, (2S,4aS,6aS,6bR,8aR,9R,10S,12aS,12bR,14bR)-10-Hydroxy-2,4a,6a,6b,9,12a-hexamethyl-9-((2-((5-methyl-2-oxo-1,3-dioxol-4-yl)methoxy)-2-oxoethoxy)methyl)-13-oxo-1,2,3,4,4a,5,6,6a,6b,7,8,8a,9,10,11,12,12a,12b,13,14b-icosahydropicene-2-carboxylic acid]",5
12,"CC(=O)O[C@H]1CC[C@@]2(C)[C@@H](CC[C@]3(C)[C@@H]2C(=O)C=C2[C@@H]4C[C@@](C)(C(=O)O)CC[C@]4(C)CC[C@]23C)[C@]1(C)C(=O)OCc1oc(=O)oc1C [Compound 243-1, (2S,4aS,6aS,6bR,8aR,9S,10S,12aS,12bR,14bR)-10-Acetoxy-2,4a,6a,6b,9,12a-hexamethyl-9-(((5-methyl-2-oxo-1,3-dioxol-4-yl)methoxy)carbonyl)-13-oxo-1,2,3,4,4a,5,6,6a,6b,7,8,8a,9,10,11,12,12a,12b,13,14b-icosahydropicene-2-carboxylic acid]",7.5
13,"Cc1oc(=O)oc1COC(=O)[C@]1(C)[C@@H](OC(=O)CO)CC[C@@]2(C)[C@H]1CC[C@]1(C)[C@@H]2C(=O)C=C2[C@@H]3C[C@@](C)(C(=O)O)CC[C@]3(C)CC[C@]21C [Compound 244-1, (2S,4aS,6aS,6bR,8aR,9S,10S,12aS,12bR,14bR)-10-(2-Hydroxyacetoxy)-2,4a,6a,6b,9,12a-hexamethyl-9-(((5-methyl-2-oxo-1,3-dioxol-4-yl)methoxy)carbonyl)-13-oxo-1,2,3,4,4a,5,6,6a,6b,7,8,8a,9,10,11,12,12a,12b,13,14b-icosahydropicene-2-carboxylic acid]",6.8
14,"COC(=O)N[C@H]1CC[C@@]2(C)[C@@H](CC[C@]3(C)[C@@H]2C(=O)C=C2[C@@H]4C[C@@](C)(C(=O)O)CC[C@]4(C)CC[C@]23C)[C@]1(C)C(=O)OCc1oc(=O)oc1C [Compound 281-3, (2S,4aS,6aS,6bR,8aR,9S,10S,12aS,12bR,14bR)-10-((methoxycarbonyl)amino)-2,4a,6a,6b,9,12a-hexamethyl-9-(((5-methyl-2-oxo-1,3-dioxol-4-yl)methoxy)carbonyl)-13-oxo-1,2,3,4,4a,5,6,6a,6b,7,8,8a,9,10,11,12,12a,12b,13,14b-icosahydropicene-2-carboxylic acid]",6.7
15,"Cc1oc(=O)oc1COC(=O)[C@]1(C)[C@@H](OC(=O)NCCN2CCOCC2)CC[C@@]2(C)[C@H]1CC[C@]1(C)[C@@H]2C(=O)C=C2[C@@H]3C[C@@](C)(C(=O)O)CC[C@]3(C)CC[C@]21C [Compound 286-4, (2S,4aS,6aS,6bR,8aR,9S,10S,12aS,12bR,14bR)-2,4a,6a,6b,9,12a-hexamethyl-9-(((5-methyl-2-oxo-1,3-dioxol-4-yl)methoxy)carbonyl)-10-(((2-morpholinoethyl)carbamoyl)oxy)-13-oxo-1,2,3,4,4a,5,6,6a,6b,7,8,8a,9,10,11,12,12a,12b,13,14b-icosahydropicene-2-carboxylic acid]",6.9

# Source: patent publication US20240209019A1, “COMPOUNDS AND METHODS FOR TREATING HYPERKALEMIA” (ARDELYX, INC., priority 2019, published 2024)
